Results: patent US6436310B1, “Deicing solution” (Sears Petroleum & Transport Corporation, priority 1998, dated 2002)
Like-named read-outs stand apart in the source and are kept apart here.

What was measured:
[1] = calculated from data in SHRP H-205.2; cited from earlier work
[2] = aqueous solution
[3] = tested on: Rats; conditions: cited from earlier work
[4] = SHRP H-205.2 Test Method for Ice Melting of Liquid Deicing Chemicals; conditions: 25° F. (−4° C.)
Protocol: Fraction E was also examined for ice melting characteristics at 25° F.

[5] = Freezing point of simple carbohydrates with 15% magnesium chloride; type: physicochemical; conditions: 15% MgCl2
Protocol: There is available commercially a wide range of carbohydrates with varying carbohydrate compositions. An evaluation was conducted using simple sugars, disaccharides and polysaccharides in an attempt to determine the effect of molecular weight and solute concentration upon freezing point.

[Ca+2].[Cl-].[Cl-] [Ca Cl2, calcium chloride]
Lbs weight ice melted per lb weight of inorganic salt [1]: 7.3 Lbs per lb

CC(=O)[O-].[Na+] [Sodium acetate, sodium acetate]
solids content at the eutectic point [2]: 23% | Oral LD 50 (Rats) [3]: 3550 mg/kg

CC(=O)[O-].[K+] [Potassium acetate, potassium acetate]
Oral LD 50 (Rats) [3]: 3250 mg/kg

[Cl-].[Cl-].[Mg+2] [Mg Cl2, magnesium chloride]
Lbs weight ice melted per lb weight of inorganic salt [4]: 16.9 Lbs per lb

[Cl-].[Na+] [Sodium Chloride, sodium chloride]
Lbs weight ice melted per lb weight of inorganic salt [1]: 7.5 Lbs per lb | Oral LD 50 (Rats) [3]: 3000 mg/kg

OC[C@H]1O[C@@H](O[C@H]2[C@H](O)[C@@H](O)C(O)O[C@@H]2CO)[C@H](O)[C@@H](O)[C@H]1O (some centres unmarked) [Lactose]
comparison in reducing freezing point [5]: somewhat better than maltose
